From ChEMBL document CHEMBL1201862, “PubChem BioAssay data set” (2004)
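All cell lines were grown in 96-well plates and treated with compound for 48 hours. At the GI50, growth is halved.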 The source made the active and inactive calls. No stated cut-off is given here; in the data, active = GI50 up to about 1.1 µM and inactive = higher.

Assays:
Assay in all cases: inhibition of tumour cell growth, NCI panel, 48 h
DU-145 = test system: DU-145
HT-29 = test system: HT-29
U-251 = test system: U-251
SR = test system: SR
HCT-15 = test system: HCT-15
OVCAR-5 = test system: OVCAR-5
A549 = test system: A549
CAKI-1 = test system: CAKI-1
MDA-N = test system: MDA-N
RPMI-8226 = test system: RPMI-8226
CCRF-CEM = test system: CCRF-CEM
HOP-92 = test system: HOP-92
UACC-62 = test system: UACC-62
SF-268 = test system: SF-268
MDA-MB-231 = test system: MDA-MB-231
HCT-116 = test system: HCT-116
Hs-578T = test system: Hs-578T
HL-60 = test system: HL-60
HOP-62 = test system: HOP-62
A498 = test system: A498
SW-620 = test system: SW-620
UO-31 = test system: UO-31
NCI-H226 = test system: NCI-H226
EKVX = test system: EKVX
OVCAR-8 = test system: OVCAR-8
RXF 393 = test system: RXF 393
IGROV-1 = test system: IGROV-1
COLO 205 = test system: COLO 205
SN12C = test system: SN12C
MDA-MB-435 = test system: MDA-MB-435
SNB-75 = test system: SNB-75
UACC-257 = test system: UACC-257
SF-295 = test system: SF-295
M14 = test system: M14
SK-OV-3 = test system: SK-OV-3
PC-3 = test system: PC-3
T47D = test system: T47D
SK-MEL-5 = test system: SK-MEL-5
Malme-3M = test system: Malme-3M
NCI-H522 = test system: NCI-H522
HCC 2998 = test system: HCC 2998
OVCAR-3 = test system: OVCAR-3
OVCAR-4 = test system: OVCAR-4
LOX IMVI = test system: LOX IMVI
SK-MEL-2 = test system: SK-MEL-2
NCI/ADR-RES = test system: NCI/ADR-RES
NCI-H460 = test system: NCI-H460
TK-10 = test system: TK-10
KM12 = test system: KM12
SNB-19 = test system: SNB-19
ACHN = test system: ACHN
NCI-H23 = test system: NCI-H23
MOLT-4 = test system: MOLT-4
SK-MEL-28 = test system: SK-MEL-28
786-0 = test system: 786-0
K562 = test system: K562
MCF7 = test system: MCF7
BT-549 = test system: BT-549
SF-539 = test system: SF-539

Measured: GI50

ClCCCCCc1c2nc(c(CCCCCCl)c3ccc([nH]3)c(CCCCCCl)c3nc(c(CCCCCCl)c4ccc1[nH]4)C=C3)C=C2
active: DU-145 1 µM
inactive: HT-29 > 100 µM | U-251 > 100 µM | SR > 100 µM | OVCAR-5 > 100 µM | A549 > 100 µM | CAKI-1 > 100 µM | MDA-N > 100 µM | RPMI-8226 > 100 µM | CCRF-CEM > 100 µM | HOP-92 > 100 µM | UACC-62 > 100 µM | SF-268 > 100 µM | MDA-MB-231 > 100 µM | HCT-116 > 100 µM | Hs-578T > 100 µM | HL-60 > 100 µM | HOP-62 > 100 µM | A498 > 100 µM | SW-620 > 100 µM | UO-31 > 100 µM | NCI-H226 > 100 µM | EKVX > 100 µM | OVCAR-8 > 100 µM | RXF 393 > 100 µM | IGROV-1 > 100 µM | COLO 205 > 100 µM | SN12C > 100 µM | MDA-MB-435 > 100 µM | SNB-75 83.4 µM | UACC-257 > 100 µM | SF-295 > 100 µM | M14 > 100 µM | SK-OV-3 > 100 µM | PC-3 > 100 µM | T47D > 100 µM | SK-MEL-5 > 100 µM | Malme-3M > 100 µM | NCI-H522 > 100 µM | HCC 2998 > 100 µM | OVCAR-3 > 100 µM | OVCAR-4 > 100 µM | LOX IMVI > 100 µM | SK-MEL-2 > 100 µM | NCI/ADR-RES > 100 µM | NCI-H460 > 100 µM | TK-10 > 100 µM | KM12 > 100 µM | SNB-19 > 100 µM | ACHN > 100 µM | NCI-H23 > 100 µM | MOLT-4 > 100 µM | SK-MEL-28 > 100 µM | 786-0 > 100 µM | K562 > 100 µM | MCF7 > 100 µM | BT-549 > 100 µM | SF-539 > 100 µM
> 100 µM: HCT-15

C[N+](C)(C)CC(=O)N/N=C(/CC1OC(=O)c2ccccc21)c1ccccc1O (stereo not given)
inactive: DU-145 34.7 µM | HT-29 44.1 µM | U-251 22 µM | SR 14.3 µM | OVCAR-5 > 100 µM | A549 76.6 µM | CAKI-1 34.1 µM | MDA-N 54.1 µM | RPMI-8226 5.94 µM | CCRF-CEM 19 µM | HOP-92 29.7 µM | UACC-62 22.9 µM | SF-268 81.8 µM | MDA-MB-231 95.9 µM | HCT-116 28.4 µM | Hs-578T 60.3 µM | HL-60 16.2 µM | HOP-62 35.4 µM | A498 38.5 µM | SW-620 33.4 µM | UO-31 24.2 µM | NCI-H226 20 µM | EKVX 62.4 µM | OVCAR-8 29.2 µM | RXF 393 28 µM | IGROV-1 37.8 µM | COLO 205 68.2 µM | SN12C 49 µM | MDA-MB-435 30.6 µM | SNB-75 39.1 µM | UACC-257 24 µM | SF-295 42.4 µM | M14 > 100 µM | SK-OV-3 35.2 µM | PC-3 60.5 µM | T47D 25.6 µM | SK-MEL-5 46.6 µM | Malme-3M 59.8 µM | NCI-H522 46.5 µM | HCC 2998 22.4 µM | OVCAR-3 62.4 µM | OVCAR-4 45.1 µM | LOX IMVI 17.4 µM | SK-MEL-2 72.8 µM | NCI/ADR-RES 19.3 µM | NCI-H460 24.4 µM | TK-10 31.9 µM | KM12 26.7 µM | SNB-19 46.8 µM | ACHN 20.3 µM | NCI-H23 26.5 µM | MOLT-4 16.2 µM | SK-MEL-28 29.2 µM | 786-0 25.8 µM | MCF7 54.8 µM | BT-549 25.1 µM | SF-539 20.3 µM
36.2 µM: HCT-15

COc1c(C)c(C/C=C(\C)CCCCO[Si](c2ccccc2)(c2ccccc2)C(C)(C)C)c(OC)c(OC)c1OC
inactive: DU-145 27.9 µM | HT-29 > 46.5 µM | U-251 > 46.5 µM | SR 43.2 µM | OVCAR-5 > 46.5 µM | A549 21.4 µM | CAKI-1 1.84 µM | MDA-N > 46.5 µM | RPMI-8226 39.9 µM | CCRF-CEM > 46.5 µM | HOP-92 > 31.6 µM | UACC-62 > 46.5 µM | SF-268 65.5 µM | MDA-MB-231 > 100 µM | HCT-116 35.5 µM | Hs-578T > 100 µM | HL-60 47.3 µM | HOP-62 25.1 µM | A498 > 100 µM | SW-620 45.6 µM | UO-31 9.27 µM | NCI-H226 > 100 µM | EKVX > 31.6 µM | OVCAR-8 20.2 µM | RXF 393 > 100 µM | IGROV-1 24.9 µM | COLO 205 20.6 µM | SN12C 27.7 µM | MDA-MB-435 > 46.5 µM | SNB-75 > 46.3 µM | UACC-257 > 46.5 µM | SF-295 > 46.5 µM | M14 > 46.5 µM | SK-OV-3 > 46.5 µM | PC-3 > 85.7 µM | T47D > 83.9 µM | SK-MEL-5 30.1 µM | Malme-3M > 100 µM | NCI-H522 50.5 µM | HCC 2998 41.8 µM | OVCAR-3 > 46.5 µM | OVCAR-4 28.1 µM | LOX IMVI 15.5 µM | SK-MEL-2 > 100 µM | NCI/ADR-RES 27 µM | NCI-H460 14.6 µM | TK-10 > 31.6 µM | KM12 14.8 µM | SNB-19 > 46.5 µM | ACHN 16.2 µM | NCI-H23 19.6 µM | MOLT-4 > 46.5 µM | SK-MEL-28 > 100 µM | 786-0 22.7 µM | K562 28.8 µM | MCF7 > 46.5 µM | BT-549 > 46.5 µM | SF-539 > 46.5 µM
> 46.5 µM: HCT-15

CC(C)OP(=O)(OC(C)C)C(Nc1cccc(C(F)(F)F)c1)c1ccccc1 (stereo not given)
55.5 µM: HCT-15
inactive: DU-145 77.6 µM | HT-29 21.6 µM | U-251 58.5 µM | SR 21.9 µM | OVCAR-5 > 100 µM | A549 30.5 µM | CAKI-1 18.7 µM | MDA-N 41 µM | RPMI-8226 12.7 µM | CCRF-CEM 31 µM | HOP-92 17.1 µM | UACC-62 69.8 µM | SF-268 > 100 µM | MDA-MB-231 45.9 µM | HCT-116 17.1 µM | Hs-578T 75.3 µM | HL-60 14.7 µM | HOP-62 69.7 µM | A498 > 100 µM | SW-620 > 10 µM | UO-31 17.9 µM | NCI-H226 60 µM | EKVX 33.3 µM | OVCAR-8 59.4 µM | RXF 393 49.5 µM | IGROV-1 79.4 µM | COLO 205 25.5 µM | SN12C 37.7 µM | MDA-MB-435 41.6 µM | SNB-75 > 100 µM | UACC-257 39.1 µM | SF-295 47.9 µM | M14 38.5 µM | SK-OV-3 > 100 µM | PC-3 37.2 µM | T47D 35.7 µM | SK-MEL-5 22.4 µM | Malme-3M 32.3 µM | NCI-H522 20.2 µM | HCC 2998 55.6 µM | OVCAR-3 35.6 µM | OVCAR-4 54.8 µM | LOX IMVI 39.4 µM | SK-MEL-2 50.7 µM | NCI/ADR-RES 32.7 µM | NCI-H460 24 µM | TK-10 > 100 µM | KM12 40.6 µM | SNB-19 71.6 µM | ACHN 35.6 µM | NCI-H23 55.6 µM | MOLT-4 13.7 µM | SK-MEL-28 93.5 µM | 786-0 70.3 µM | K562 23.4 µM | MCF7 46.9 µM | BT-549 17.7 µM | SF-539 > 100 µM
